Earlier results as cited in patent US9486463B2, “Chemosensory receptor ligand-based therapies” (AMBRA BIOSCIENCE LLC, priority 2010, dated 2016).
Each block holds one compound with its values, some of them ahead of it.

How the values were obtained:
sweet receptor = target: T1, sweet receptor (Homo sapiens, UniProt Q7RTX0+Q8TE23); settings: relative sweetness on a weight comparison basis to sucrose (=1.0)
T1 sequence (Q8TE23 20-839): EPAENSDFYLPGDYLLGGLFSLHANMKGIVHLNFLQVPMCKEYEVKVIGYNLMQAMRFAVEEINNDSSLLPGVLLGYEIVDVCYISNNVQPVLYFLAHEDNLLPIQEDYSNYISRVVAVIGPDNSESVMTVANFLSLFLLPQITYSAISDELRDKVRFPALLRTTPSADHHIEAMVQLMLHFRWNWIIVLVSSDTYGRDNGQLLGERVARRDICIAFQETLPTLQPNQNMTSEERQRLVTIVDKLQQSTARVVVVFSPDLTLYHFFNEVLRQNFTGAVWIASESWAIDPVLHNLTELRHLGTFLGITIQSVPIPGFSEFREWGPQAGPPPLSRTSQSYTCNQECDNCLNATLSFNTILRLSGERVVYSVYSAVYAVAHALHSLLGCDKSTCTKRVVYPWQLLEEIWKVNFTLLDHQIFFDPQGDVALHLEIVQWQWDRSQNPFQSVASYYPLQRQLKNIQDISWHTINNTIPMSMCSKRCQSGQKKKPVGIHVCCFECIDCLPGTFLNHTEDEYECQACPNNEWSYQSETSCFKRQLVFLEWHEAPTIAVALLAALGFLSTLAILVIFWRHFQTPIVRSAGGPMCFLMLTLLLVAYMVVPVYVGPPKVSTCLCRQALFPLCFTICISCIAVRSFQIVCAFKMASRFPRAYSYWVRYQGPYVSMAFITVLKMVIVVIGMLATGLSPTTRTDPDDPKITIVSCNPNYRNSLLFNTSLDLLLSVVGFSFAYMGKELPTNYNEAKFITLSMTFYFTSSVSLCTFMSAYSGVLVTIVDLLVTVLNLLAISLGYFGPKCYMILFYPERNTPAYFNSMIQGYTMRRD
T1 sequence (Q7RTX0 21-852): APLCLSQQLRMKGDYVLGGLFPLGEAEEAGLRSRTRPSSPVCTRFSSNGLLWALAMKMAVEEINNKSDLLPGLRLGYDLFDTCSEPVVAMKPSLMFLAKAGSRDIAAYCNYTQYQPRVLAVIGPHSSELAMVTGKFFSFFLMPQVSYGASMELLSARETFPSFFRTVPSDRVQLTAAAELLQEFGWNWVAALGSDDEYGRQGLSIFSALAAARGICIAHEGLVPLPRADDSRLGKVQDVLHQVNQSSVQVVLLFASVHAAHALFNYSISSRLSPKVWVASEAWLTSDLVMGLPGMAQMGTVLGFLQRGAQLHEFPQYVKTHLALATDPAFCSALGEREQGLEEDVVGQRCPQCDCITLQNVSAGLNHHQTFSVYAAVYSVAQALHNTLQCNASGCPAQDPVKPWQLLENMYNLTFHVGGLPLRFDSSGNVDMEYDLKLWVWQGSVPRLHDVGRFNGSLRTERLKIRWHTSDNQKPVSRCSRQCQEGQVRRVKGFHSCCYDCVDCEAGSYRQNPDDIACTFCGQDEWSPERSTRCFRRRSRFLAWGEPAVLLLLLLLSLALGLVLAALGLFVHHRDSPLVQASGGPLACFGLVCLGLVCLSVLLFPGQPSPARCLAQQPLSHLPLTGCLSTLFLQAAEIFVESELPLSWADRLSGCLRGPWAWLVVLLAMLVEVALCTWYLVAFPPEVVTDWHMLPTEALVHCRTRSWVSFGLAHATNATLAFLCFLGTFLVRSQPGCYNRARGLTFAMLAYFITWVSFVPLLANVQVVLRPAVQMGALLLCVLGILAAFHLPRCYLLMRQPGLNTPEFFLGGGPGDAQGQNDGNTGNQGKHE

humans [1] = test system: humans
rats [2] = test system: rats
humans [3] = test system: humans; remark: listed apart in the source
rats [4] = test system: rats; remark: listed apart in the source
humans [5] = settings: instillation into the duodenum of humans
rats [6] = test system: rats; remark: listed apart in the source
[7] = test system: patients with jejunostomy

Compound: C=C(C)C1CC=C(/C=N/O)CC1 (centres unmarked) [Perillartine (10), Perillartine]
Sweetness/potency (sweet receptor): 370

Compound: C=C1C[C@@]23CC[C@H]4[C@@](C)(CCC[C@@]4(C)C(=O)O[C@@H]4O[C@H](CO)[C@@H](O)[C@H](O)[C@H]4O)[C@@H]2CC[C@]1(O[C@@H]1O[C@H](CO)[C@@H](O)[C@H](O[C@@H]2O[C@H](CO)[C@@H](O)[C@H](O)[C@H]2O)[C@H]1O[C@@H]1O[C@H](CO)[C@@H](O)[C@H](O)[C@H]1O)C3 [Rebaudioside A (4), Rebaudioside A]
Gut hormones in the circulation (humans [1]): no alterations

Compound: N[C@@H](CCC(=O)O)C(=O)O [glutamate]
Abdominal fat (rats [2]): reduced abdominal fat
Weight gain (rats [2]): decreased weight gain

Compound: OCCN1C[C@H](O)[C@@H](O)[C@H](O)[C@H]1CO [miglitol]
Post-prandial GLP-1 levels (humans [3]): increase
Increase in GLP-1, interaction with administration of a DPP-IV inhibitor (rats [4]): synergistic

Compound: OC[C@H]1O[C@H](O[C@]2(CCl)O[C@H](CCl)[C@@H](O)[C@@H]2O)[C@H](O)[C@@H](O)[C@H]1Cl [sucralose]
Gut hormone release (humans [5]): no effect
Gut hormone release (rats [6]): no effect

Sweetness/potency (sweet receptor): 30
Compound: Dulcoside A [Dulcoside A (15)]

Compound: GLP-2: gut hormone administered in patients with jejunostomy (HADGSFSDEMNTILDNLAARDFINWLIQTKITD; Glucagon-like peptide 2; UniProt P01275 146-178, looked up)
Gastric emptying of solids and liquids [7]: prolong
Intestinal absorption of energy and intestinal wet weight absorption [7]: improve
